Reference: US10765638B2, “Particle formulation with polycation complex” (Yale University, priority 2017, dated 2020)

Columns and labels:
T98G cells = test: Phospho-γH2AX foci formation after radiation; type: cell-based; conditions: 2 hours after 4 Gy, 10 μM NGI-1
Method: (§1) To determine histone H2AX phosphorylation (γH2AX), cells were cultured on glass cover slips and pre-treated with either vehicle or NGI-1 for 48 hours followed by radiation treatment. Samples were fixed with 4% neutral-buffered formaldehyde, washed (0.1% triton in PBS for 30 minutes) and incubated for 1 hour with protein-blocking solution (PBS containing 10% normal goat-horse serum; Sigma-Aldrich, Saint Louis, Mich., US). Next, the slides were incubated with primary anti-phospho-histone γH2AX S139 (1:500, Millipore-Upstate, Billerica, Mass., US) followed by incubation with secondary antibody Alexa Fluor 555-conjugated goat anti-mouse IgG (1:750, Molecular probes/Invitrogen, Carlsbad, Calif., US), for 1 hour at room temperature. Nuclei were stained using DAPI containing vectashield mounting solution (Vector Labs). Confocal cellular images were captured with an inverted Zeiss LSM 510 Pascal laser confocal microscope (C. Zeiss, Jenna, Germany), using a 63/1.4 plan-apochromat objective. Five randomly selected fields s per slide were analyzed. Cells were counted using the ImageJ program, public domain Java image processing software.

U251 cells = test: Phospho-γH2AX foci formation after radiation; type: cell-based; conditions: 2 hours after 4 Gy, 10 μM NGI-1
Method: as §1

D54 cells = test: Phospho-γH2AX foci formation after radiation; type: cell-based
Method: as §1

SKMG3 cells = test: Radiation clonogenic survival assay; type: cell-based, human
Method: Radiation (XRT) doses of either 0, 2, 4, or 6 Gy were delivered with a Precision X-ray 320-kV orthovoltage unit at a dose rate of 2 Gy/45 seconds (PXI X-Ray Systems). Twenty-four hours following XRT cells were washed, trypsinized, and re-plated in triplicate wells to determine clonogenic survival. […] Growth rates were determined by CellTiter 96 Non-Radioactive Cell Proliferation Assay (Promega; Madison, Wis., USA) according to the manufacturer's directions. For each experiment one thousand cells were seeded in triplicate wells in 96-wells plates. The following day, cell cultures were treated with NGI-1 (1 μM), Temozolomide (TMZ, 10 μM), Etoposide (VP-16, 0.1 μM) or combinations for 5 days. Absorbance at 540 nm was measured using the spectrophotometric reading (BioTek Synergy 2; Winooski, Vt. USA).

AKT = test: Radiation-induced AKT activation; type: cell-based
HCC827-GR cells = test: Apoptosis by Annexin V flow cytometry; type: cell-based; conditions: NGI-1 treatment alone
Method: First-line analysis was performed with Flow Jo software. Approximately 50,000 cells were analyzed per experiment, and the mean value was obtained from 3 independent assays.

CD8-EGFR = test: Western blot of CD8-EGFR phosphorylation in SKMG3-CD8-EGFR cells; type: cell-based, human; conditions: SKMG3 cells with stable expression of the CD8-EGFR
Method: The CD8 cDNA was a gift from Paula Kavathas (Yale University). The CD8-EGFR was constructed according to a strategy that generated a constitutively active IGF-1R (24). The extracellular domain of CD8 was PCR amplified with a 5′ XbaI and 3′ SalI restriction site and cloned in-frame with the intracellular kinase domain of EGFR using the pDCB5-EGFR plasmid. SKMG3-CD8-EGFR cells were generated by Lipofectamine (Life Technologies) transfection of the plasmid followed by selection with 500 μg/ml G418.

H1975 = test: Cell cycle distribution by flow cytometry; type: cell-based; conditions: NGI-1 for 24 h, printed 40% vs 60%, higher value taken as NGI-1
Method: (§2) For the assessment of cell cycle distribution, 1×10^6 cells were collected, washed once with ice-cold PBS and fixed in ice-cold 70% ethanol overnight at −20° C. Thereafter, cells were washed twice with PBS and incubated for 30 min at room temperature in 200 μL of Guava Cell Cycle Reagent (Guava Technologies). Cytofluorometric acquisitions were performed on a LSRII cytometer (BD Biosciences). First-line analysis was performed with Flow Jo software, upon gating of the events characterized by normal forward and side scatter parameters and discrimination of doublets in a FSC-A vs. FSC-H bivariate plot. Approximately 30,000 cells were analyzed per experiment, and the mean value was obtained from 3 independent assays.

HCC-827-GR cells = test: Cell cycle distribution by flow cytometry; type: cell-based; conditions: NGI-1 for 24 h, printed 75% vs 45%
Method: as §2

PC9-GR2 = test: Cell cycle distribution by flow cytometry; type: cell-based; conditions: NGI-1 for 24 h, printed 80% vs 60%
Method: as §2

PC9-GR1 = test: Cell cycle distribution by flow cytometry; type: cell-based; conditions: NGI-1 for 24 h, printed 60% vs 40%
Method: as §2

H1975-OR cells = test: Cell cycle distribution by flow cytometry; type: cell-based; conditions: NGI-1 for 24 h, printed 45% vs 75%, higher value taken as NGI-1
Method: as §2

## Cc1cnc(NC(=O)c2cc(S(=O)(=O)N(C)C)ccc2N2CCCC2)s1 [NGI-1, 5-(dimethylsulfamoyl)-N-(5-methyl-1,3-thiazol-2-yl)-2-(pyrrolidin-1-yl)benzamide]
T98G cells
  enhancement of phospho-γH2AX foci formation: no enhancement
U251 cells
  enhancement of phospho-γH2AX foci formation: no enhancement
D54 cells; 4 Gy + 10 μM NGI-1, radiation alone 6.4-fold
  increase of phospho-γH2AX foci formation, time course: 8.6 fold
D54 cells; 2 hours after 4 Gy, 10 μM NGI-1
  increase of phospho-γH2AX foci formation compared to radiation alone (factor): 1.3
SKMG3 cells; 10 μM NGI-1
  dose enhancement factor (DEF) at a surviving fraction of 0.4: 1.2
SKMG3 cells; 10 μM NGI-1 48 hours before radiation, 87% without NGI-1
  survival fraction at 2 Gy (SF2Gy): 77%
AKT; CD8-EGFR expressing SKMG3 cells
  radiation-induced activation of AKT: not in the CD8-EGFR expressing SKMG3 cells
AKT; T98G cells
  AKT activation: does not block AKT activation
AKT; parental SKMG3 cells
  radiation-induced activation of AKT: blocks
HCC827-GR cells
  induction of apoptosis: not sufficient to induce apoptosis
CD8-EGFR
  CD8-EGFR phosphorylation (phospho-Y1068, phospho-Y845): resistant
H1975
  cells in G1 (G1 arrest): 60%
HCC-827-GR cells
  cells in G1 (G1 arrest): 75%
PC9-GR2
  cells in G1 (G1 arrest): 80%
PC9-GR1
  cells in G1 (G1 arrest): 60%
H1975-OR cells
  cells in G1 (G1 arrest): 75%
